Assays:
COX-1 = target: T1, COX-1 (Homo sapiens, UniProt P23219); experiment: Assay for the COX-1 inhibitory activity using U-937 (PGE2 inhibition); type: cell-based; settings: U-937 human lymphoma cells, test compound 1 μM, PGE2 vs DMSO control; read-out: Cyclooxygenase (COX) Inhibition (%) COX-1 (1 μM)
T1 construct: host or cells: U-937 human lymphoma cells
Experimental: The collected cells were diluted with HBSS (×1, Hank's balanced salt solution) to a concentration of 1×10^6 cells/ml. 1 ml of the dilute cell solution was placed into each well of 12-well plates. 5 μl of 1 μM solution of a test compound in DMSO and 5 μl of DMSO as a control were added to the wells. The wells were incubated in CO2 incubator at 37° C. for 15 minutes. Separately, 10 mM stock solution of arachidonic acid in ethanol was diluted ten times in ethanol to prepare 1 mM solution of arachidonic acid. Arachidonic acid acts as a substrate. 10 μl of the 1 mM solution of arachidonic acid was added to each well and incubated at CO2 incubator at 37° C. for 30 minutes. The cell solution of each well was placed in a centrifuge test tube and centrifuged at 10,000 rpm at 4° C. for 5 minutes. The concentration of PGE2 in the collected cells and the supernatant was quantified by means of a monoclonal kit (Cayman Chemicals). The percentages of PGE2 inhibition in a group of the test compound-treated cells in relation to a group of the DMSO-treated cells were calculated. Based on the calculated values, the COX-1 inhibitory activities were evaluated.
(§1) The percentages of the COX inhibition were calculated according to the following equation:
(§2) % Inhibition=(concentration of PGE2 in test compound-untreated sample —concentration of PGE2 in test compound-treated sample)/(concentration of PGE2 in test compound-untreated sample)×100

COX-2 = target: T2, COX-2 (Mus musculus, UniProt Q05769); experiment: Assay for the COX-2 inhibitory activity using RAW 264.7 cell line (PGE2 inhibition); type: cell-based; settings: RAW264.7, RAW 264.7 cells, test compound 10 nM, interferon/LPS 18 hours, read-out: Cyclooxygenase (COX) Inhibition (%) COX-2 (10 nM)
T2 construct: host or cells: RAW 264.7 cells, aspirin-pretreated, then induced with interferon and LPS
T2 sequence (Q05769 18-604): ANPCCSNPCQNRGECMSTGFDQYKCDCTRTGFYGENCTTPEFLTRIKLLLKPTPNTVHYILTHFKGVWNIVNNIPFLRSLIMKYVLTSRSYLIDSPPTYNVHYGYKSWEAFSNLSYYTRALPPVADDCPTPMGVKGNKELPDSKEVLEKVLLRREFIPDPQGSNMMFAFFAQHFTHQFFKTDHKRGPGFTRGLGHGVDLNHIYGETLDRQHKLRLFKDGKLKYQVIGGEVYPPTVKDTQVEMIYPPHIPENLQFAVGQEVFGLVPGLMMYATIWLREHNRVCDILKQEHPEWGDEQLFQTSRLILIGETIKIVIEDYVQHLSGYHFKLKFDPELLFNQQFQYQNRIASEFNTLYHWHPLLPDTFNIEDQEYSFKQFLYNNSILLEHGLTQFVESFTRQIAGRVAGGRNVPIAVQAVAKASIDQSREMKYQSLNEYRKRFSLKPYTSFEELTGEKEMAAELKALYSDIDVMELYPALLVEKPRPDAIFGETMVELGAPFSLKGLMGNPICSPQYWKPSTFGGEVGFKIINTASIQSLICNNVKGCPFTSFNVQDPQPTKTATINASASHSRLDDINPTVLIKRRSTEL
Experimental: Each well was treated with 250 μM of aspirin and incubated at 37° C. for 2 hours. After the culture media were replaced with new culture media, the new culture media were treated with a test compound (10 nM) and incubated for 30 minutes. Then, each well was treated with interferon (100 units/ml) and lipopolysaccharide (LPS, 100 ng/ml) and incubated for 18 hours. The culture media were transferred to other test tubes. The concentration of PGE2 was quantified by means of the EIA kit (Cayman Chemicals).
as §1, §2

T1 sequence (P23219 24-599): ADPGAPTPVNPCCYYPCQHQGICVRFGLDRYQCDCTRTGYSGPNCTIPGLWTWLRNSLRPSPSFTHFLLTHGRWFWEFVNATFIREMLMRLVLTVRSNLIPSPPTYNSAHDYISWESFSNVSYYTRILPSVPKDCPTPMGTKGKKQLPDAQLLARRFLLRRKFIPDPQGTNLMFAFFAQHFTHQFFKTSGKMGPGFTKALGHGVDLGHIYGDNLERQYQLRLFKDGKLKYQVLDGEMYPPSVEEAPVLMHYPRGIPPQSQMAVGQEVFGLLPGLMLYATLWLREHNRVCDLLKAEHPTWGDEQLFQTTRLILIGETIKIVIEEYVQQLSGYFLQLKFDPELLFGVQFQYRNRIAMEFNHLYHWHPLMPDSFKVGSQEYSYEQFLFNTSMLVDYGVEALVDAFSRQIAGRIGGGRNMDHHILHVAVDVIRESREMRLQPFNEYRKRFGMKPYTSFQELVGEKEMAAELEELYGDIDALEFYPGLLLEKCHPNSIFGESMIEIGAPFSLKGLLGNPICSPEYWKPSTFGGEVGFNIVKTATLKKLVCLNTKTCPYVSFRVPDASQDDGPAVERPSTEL

Structure (SMILES) | inhibition at 1 µM (COX-1) | inhibition at 0.01 µM (COX-2)
Cc1ccc(-c2nc(C(F)(F)F)nn2-c2ccc(S(C)(=O)=O)c(F)c2)cc1 [Example 27, 1-(3-fluoro-4-methanesulfonylphenyl)-5-(4-methylphenyl)-3-trifluoromethyl-1H-1,2,4-triazole] | 26.4% | 19%
Cc1cccc(-c2nc(C(F)(F)F)nn2-c2ccc(S(C)(=O)=O)c(F)c2)c1 [Example 32, 1-(3-fluoro-4-methanesulfonylphenyl)-5-(3-methylphenyl)-3-trifluoromethyl-1H-1,2,4-triazole] | 23.2% | 27.8%
COc1ccc(-c2nc(C(F)(F)F)nn2-c2ccc(S(C)(=O)=O)c(F)c2)cc1F [Example 31, 1-(3-fluoro-4-methanesulfonylphenyl)-5-(3-fluoro-4-methoxyphenyl)-3-trifluoromethyl-1H-1,2,4-triazole] | 26.4% | 16.2%
CS(=O)(=O)c1ccc(-n2nc(C(F)(F)F)nc2-c2ccc(F)c(F)c2)cc1F [Example 35, 1-(3-fluoro-4-methanesulfonylphenyl)-5-(3,4-difluorophenyl)-3-trifluoromethyl-1H-1,2,4-triazole] | 21.2% | 15.5%
CS(=O)(=O)c1ccc(-n2nc(C(F)(F)F)nc2-c2ccc3c(c2)OCO3)cc1F [Example 34, 5-([1,3]benzodioxole-5-yl)-1-(3-fluoro-4-methanesulfonylphenyl)-3-trifluoromethyl-1H-1,2,4-triazole] | 11.2% | 41.5%
CS(=O)(=O)c1ccc(-n2nc(C(F)(F)F)nc2-c2ccc(F)cc2)cc1F [Example 24, 1-(3-fluoro-4-methanesulfonylphenyl)-5-(4-fluorophenyl)-3-trifluoro methyl-1H-1,2,4-triazole] | 18.8% | 18.5%
CS(=O)(=O)c1ccc(-n2nc(C(F)(F)F)nc2-c2ccc(Cl)cc2)cc1F [Example 26] | 27.4% | 22.3%
CS(=O)(=O)c1ccc(-n2nc(C(F)(F)F)nc2-c2cccc(Cl)c2)cc1F [Example 29, 1-(3-fluoro-4-methanesulfonylphenyl)-5-(3-chlorophenyl)-3-trifluoro methyl-1H-1,2,4-triazole] | 11.1% | 16.4%
CS(=O)(=O)c1ccc(-n2nc(C(F)(F)F)nc2-c2ccc3ccccc3c2)cc1F [Example 33, 1-(3-fluoro-4-methanesulfonylphenyl)-5-(naphthalene-2-yl)-3-trifluoromethyl-1H-1,2,4-triazole] | 44.5% | 13.5%
CCOc1ccc(-c2nc(C(F)(F)F)nn2-c2ccc(S(C)(=O)=O)c(F)c2)cc1 [Example 28, 1-(3-fluoro-4-methanesulfonylphenyl)-5-(4-ethoxyphenyl)-3-trifluoromethyl-1H-1,2,4-triazole] | 25.7% | 15.6%
COc1ccc(-c2nc(C(F)(F)F)nn2-c2ccc(S(C)(=O)=O)c(F)c2)cc1 [Example 23, 1-(3-fluoro-4-methanesulfonylphenyl)-5-(4-methoxyphenyl)-3-trifluoromethyl-1H-1,2,4-triazole] | 15.5% | 41.2%
CS(=O)(=O)c1ccc(-n2nc(C(F)(F)F)nc2-c2ccc(Br)cc2)cc1F [Example 25, 1-(3-fluoro-4-methanesulfonylphenyl)-5-(4-bromophenyl)-3-trifluoromethyl-1H-1,2,4-triazole] | 19.5% | 13.7%
CS(=O)(=O)c1ccc(-n2nc(C(F)(F)F)nc2-c2cccc(F)c2)cc1F [Example 30, 1-(3-fluoro-4-methanesulfonylphenyl)-5-(3-fluorophenyl)-3-trifluoro methyl-1H-1,2,4-triazole] | 23.2% | 15.1%
CS(=O)(=O)c1ccc(-n2nc(C(F)(F)F)nc2-c2ccccc2)cc1F [Example 22, 1-(3-fluoro-4-methanesulfonylphenyl)-5-phenyl-3-trifluoromethyl-1H-1,2,4-triazole] | 32.8% | 13.7%

Reference: patent publication US6849652B1, “1,2,4-triazole derivative, method for preparing the same, and pharmaceutical composition containing the same” (CJ Corp., priority 2002, dated 2005)
